According to patent US20220287993A1, “PHARMACEUTICAL COMPOSITION COMPRISING HDAC INHIBITOR AND ANTI-PD1 ANTIBODY OR ANTI PD-L1 ANTIBODY” (CRYSTALGENOMICS, INC., priority 2019, published 2022):

System: Hepal-6 hepatoma cells
Assay: Tumor growth inhibition rate in mouse model (Hepal-6 hepatoma cells transplanted into C57BL/6 mice)
Format: in vivo, mice (C57BL/6)
Procedure: (E)-N1-(3-(dimethylamino)propyl)-N8-hydroxy-2-((naphthalen-1-yloxy)methyl)-2-octenediamide phosphate (CG-745, CAS No. 2173017-02-0) was used as the alkylcarbamoyl naphthalenyloxy octenoyl hydroxyamide compound, and BP0146 (BioXcell, West Lebanon, N.H., USA) was used as the anti-PD-1 antibody.
1×10^6 Hepal-6 hepatoma cells were injected into the left flank of 6-week-old C57BL6 mice. After 5 days, they were separated into 4 groups for administration of the vehicle, CG-745 alone, the anti-PD-1 antibody alone, or a combination of CG-745 and the anti-PD-1 antibody. The tumor volume was defined as (long axis)×(short axis)^2×0.5. […] Vehicle, CG-745, and the anti-PD-1 antibody were administered intraperitoneally (I.P). CG-745 was administered at a dose of 20 mg/kg for 5 consecutive days followed by 2 days of rest (1 treatment cycle) and the treatment cycle was repeated 3 times. The anti-PD-1 antibody was administered once at a dose of 5 mg/kg together with CG-745 on the fifth day of the first treatment cycle of CG-745.
The average inhibition rate of tumor growth for 9 mice is shown in FIG. 1, and the results for each of 9 mice are shown in FIG. 2.

## CN(C)CCCNC(=O)/C(=C/CCCCC(=O)NO)COc1cccc2ccccc12.O=P(O)(O)O [Comparative Example 1, (E)-N1-(3-(dimethylamino)propyl)-N8-hydroxy-2-((naphthalen-1-yloxy)methyl)-2-octenediamide phosphate]
Day 32, average of 9 mice, CG-745 20 mg/kg I.P. 5 days on/2 days off x 3 cycles, anti-PD-1 antibody 5 mg/kg I.P. once
  tumor growth inhibition rate: 73.8%
Of 9 mice per group, same dosing as the tumor growth inhibition rate
  number of mice in which the tumor disappeared: 4 mice
